# Test results taken from patent US8759522B2, “Inhibitors of protein tyrosine kinase activity” (Methylgene Inc., priority 2008, dated 2014).
# Test system: CNV progression
# Assay: In vivo choroidal neovascularization (CNV) model
# Parameters: species or system Brown-Norway rats
# Conditions: 240 h; rat laser-induced CNV, 30 nmol/eye injection on Day 3, CNV area on Day 10 vs vehicle-treated group
# Excerpt: In vivo Choroidal Neovascularization (CNV) Model
# This test measures the capacity of compounds to inhibit CNV progression. CNV is the main cause of severe vision loss in patients suffering from age-related macular degeneration (AMD).
# Male Brown-Norway rats (Japan Clea Co., Ltd.) were used in these studies.
# Rats were anesthetized by intraperitoneal injection of pentobarbital, and the right pupil was dilated with 0.5% tropicamide and 0.5% phenylephrine hydrochloride. The right eye received 6 laser burns between retinal vessels using a slit lamp delivery system of Green laser Photocoagulator (Nidex Inc., Japan), and microscope slide glass with Healon™ (AMO Inc) used as a contact lens. The laser power was 100 or 200 mW for 0.1 second and spot diameter was 100 μm. At the time of laser burn, bubble production was observed, which is an indication of rupture of Bruch's membrane which is important for CNV generation.
# Rats were divided into the groups based on their body weight using SAS software (SAS institute Japan, R8.1) after laser irradiation (Day 0). After animals were anesthetized, and the right pupil dilated (as above mentioned), the right eye of the animal received the compound or vehicle by an injection (10 μL/eye) at doses of 30 nmol/eye on Day 3. The compounds were dissolved or suspended in CBS, PBS, or other adequate vehicles before injection.
# On Day 10, the animals were anesthetized with ether, and high molecular weight fluorescein isothiocyanate (FITC)-dextran (SIGMA, 2×10^6 MW) was injected via a tail vein (20 mg/rat). About 30 min after FITC-dextran injection, animals were euthanized by ether or carbon dioxide, and the eyes were removed and fixed with 10% formaline neutral buffer solution. After over 1 hour of fixation, RPE-choroid-sclera flat mounts were obtained by removing cornea, lens and retina from the eyeballs. The flat mounts were mounted in 50% glycerol on a microscope slide, and the portion burned by laser was photographed using a fluorescence microscope (Nikon Corporation, excitation filter: 465-495 nm, absorption filter: 515-555 nm). The CNV area was obtained by measurement of hyper-fluorescence area observed on the photograph using Scion image.
# The average CNV area of 6 burns was used as an individual value of CNV area, and the average CNV area of compound treated group was compared with that of the vehicle-treated group.
row,Structure (SMILES),inhibition in vivo at 30 nmol/eye [%]
1,"COCCNCc1cnc(-c2cc3nccc(Oc4ccc(NC(=O)NC(C)C)cc4F)c3s2)n1C [Compound 315, 1-(3-Fluoro-4-(2-(5-((2-methoxyethylamino)methyl)-1-methyl-1H-imidazol-2-yl)thieno[3,2-b]pyridin-7-yloxy)phenyl)-3-isopropylurea]",≥ 60
2,"COCCOCCOCCOCCNCc1ccc(-c2cc3nccc(Oc4ccc(NC(=O)NC5CC5)cc4F)c3s2)nc1 [Compound 323, 1-(4-(2-(5-5,8,11,14-Tetraoxa-2-azapentadecylpyridin-2-yl)thieno[3,2-b]pyridin-7-yloxy)-3-fluorophenyl)-3-cyclopropylurea]",≥ 60
3,"N[C@@H](CCCCNCc1ccc(-c2cc3nccc(Oc4ccc(NC(=O)NC5CC5)cc4F)c3s2)nc1)C(=O)O [Compound 324, (S)-2-amino-6-((6-(7-(4-(3-cyclopropylureido)-2-fluorophenoxy)thieno[3,2-b]pyridin-2-yl)pyridin-3-yl)methylamino)hexanoic acid]",40 to 60
4,"COCCOCCNCc1ccc(-c2cc3nccc(Oc4ccc(NC(=O)NC5CC5)cc4F)c3s2)nc1 [Compound 331, 1-Cyclopropyl-3-(3-fluoro-4-(2-(5-((2-(2-methoxyethoxy)ethylamino)methyl)pyridin-2-yl)thieno[3,2-b]pyridin-7-yloxy)phenyl)urea]",40 to 60
5,"O=C(Nc1ccc(Oc2ccnc3cc(-c4ccc(CN5CCCC5=O)cn4)sc23)c(F)c1)NC1CC1 [Compound 333, 1-cyclopropyl-3-(3-fluoro-4-(2-(5-((2-oxopyrrolidin-1-yl)methyl)pyridin-2-yl)thieno[3,2-b]pyridin-7-yloxy)phenyl)urea]",≥ 60
6,"COC[C@H](C)N(Cc1ccc(-c2cc3nccc(Oc4ccc(NC(=O)NC5CC5)cc4F)c3s2)nc1)C(C)=O [Compound 335, (S)—N-((6-(7-(4-(3-cyclopropylureido)-2-fluorophenoxy)thieno[3,2-b]pyridin-2-yl)pyridin-3-yl)methyl)-N-(1-methoxypropan-2-yl)acetamide]",40 to 60
7,"COCCN(Cc1ccc(-c2cc3nccc(Oc4ccc(NC(=O)NC5CC5)cc4F)c3s2)nc1)C(=O)[C@H](N)C(C)C [Compound 341, (R)-2-amino-N-((6-(7-(4-(3-cyclopropylureido)-2-fluorophenoxy)thieno[3,2-b]pyridin-2-yl)pyridin-3-yl)methyl)-N-(2-methoxyethyl)-3-methylbutanamide]",≥ 60
8,"COCCN(Cc1cnc(-c2cc3nccc(Oc4ccc(NC(=O)NC5CC5)cc4F)c3s2)n1C)S(C)(=O)=O [Compound 349, N-((2-(7-(4-(3-Cyclopropylureido)-2-fluorophenoxy)thieno[3,2-b]pyridin-2-yl)-1-methyl-1H-imidazol-5-yl)methyl)-N-(2-methoxyethyl)methanesulfonamide]",≥ 60
9,"COCCNCc1cnc(-c2cc3nccc(Oc4ccc(NC(=O)Nc5ccc(F)cc5F)cc4F)c3s2)n1C [Compound 351, 1-(2,4-difluorophenyl)-3-(3-fluoro-4-(2-(5-((2-methoxyethylamino)methyl)-1-methyl-1H-imidazol-2-yl)thieno[3,2-b]pyridin-7-yloxy)phenyl)urea]",40 to 60
10,"COCCNCc1cccc(-c2cc3nccc(Oc4ccc(NC(=O)Nc5cccc(P(C)(C)=O)c5)cc4F)c3s2)n1 [Compound 387, 1-(3-(dimethylphosphoryl)phenyl)-3-(3-fluoro-4-(2-(6-((2-methoxyethylamino)methyl)pyridin-2-yl)thieno[3,2-b]pyridin-7-yloxy)phenyl)urea]",40 to 60
11,"COCCOCCOCCNCc1ccc(-c2cc3nccc(Oc4ccc(NC(=O)Nc5cccc(P(C)(C)=O)c5)cc4F)c3s2)nc1 [Compound 390, 1-(4-(2-(5-5,8,11-trioxa-2-azadodecylpyridin-2-yl)thieno[3,2-b]pyridin-7-yloxy)-3-fluorophenyl)-3-(3-(dimethylphosphoryl)phenyl)urea]",40 to 60
12,"COCCOCCNCc1ccc(-c2cc3nccc(Oc4ccc(NC(=O)Nc5cc(C)on5)cc4F)c3s2)nc1 [Compound 392, 1-(3-fluoro-4-(2-(5-((2-(2-methoxyethoxy)ethylamino)methyl)pyridin-2-yl)thieno[3,2-b]pyridin-7-yloxy)phenyl)-3-(5-methylisoxazol-3-yl)urea]",40 to 60
13,"COCCNCc1ccc(-c2cc3nccc(Oc4ccc(NC(=O)Nc5nc(C)cs5)cc4F)c3s2)nc1 [Compound 397, 1-(3-fluoro-4-(2-(5-((2-methoxyethylamino)methyl)pyridin-2-yl)thieno[3,2-b]pyridin-7-yloxy)phenyl)-3-(4-methylthiazol-2-yl)urea]",40 to 60
14,"COCCNCc1ccc(-c2cc3nccc(Oc4ccc(NC(=O)Nc5cccc(S(N)(=O)=O)c5)cc4F)c3s2)nc1 [Compound 403, 3-(3-(3-fluoro-4-(2-(5-((2-methoxyethylamino)methyl)pyridin-2-yl)thieno[3,2-b]pyridin-7-yloxy)phenyl)ureido)benzenesulfonamide]",≥ 60
15,"COCCN(Cc1ccc(-c2cc3nccc(Oc4ccc(NC(=O)Nc5cccc(S(C)(=O)=O)c5)cc4F)c3s2)nc1)C(C)=O [Compound 413, N-((6-(7-(2-fluoro-4-(3-(3-(methylsulfonyl)phenyl)ureido)phenoxy)thieno[3,2-b]pyridin-2-yl)pyridin-3-yl)methyl)-N-(2-methoxyethyl)acetamide]",≥ 60
16,"COCCNCc1ccc(-c2cc3nccc(Oc4ccc(NC(=O)NC5CCC5)cc4F)c3s2)nc1 [Compound 414, 1-cyclobutyl-3-(3-fluoro-4-(2-(5-((2-methoxyethylamino)methyl)pyridin-2-yl)thieno[3,2-b]pyridin-7-yloxy)phenyl)urea]",40 to 60
17,"COCCN(Cc1ccc(-c2cc3nccc(Oc4ccc(NC(=O)Nc5cccc(C(N)=O)c5)cc4F)c3s2)nc1)C(=O)OC [Compound 419, methyl (6-(7-(4-(3-(3-carbamoylphenyl)ureido)-2-fluorophenoxy)thieno[3,2-b]pyridin-2-yl)pyridin-3-yl)methyl(2-methoxyethyl)carbamate]",40 to 60

# Same assay, conditions: rat laser-induced CNV, 30 nmol/eye injection on Day 3, CNV area on Day 10 vs vehicle-treated group
row,Structure (SMILES),Inhibition of CNV progression
1,COCCNCc1cnc(-c2cc3nccc(Oc4ccc(NC(=O)NC5CC5)cc4F)c3s2)n1C [Compound 348],B (≧40% to <60% inhibition)
